Assay results taken from US20260022143A1, “Cyclic Peptide Inhibitors of IL-23” (JANSSEN PHARMACEUTICA NV, priority 2022, published 2026).
Counter-ions that a name gives are not always drawn. Starred links: 1 amine or outer side, 2 acyl side, 3 side chain; linkers in the order of their positions; H or OH if unused. Positions of bridges follow the written chain, without caps; N, C: chain ends. Non-standard residues stand in square brackets, D forms with d. Residues, ends and D or L forms follow the SMILES beside them. Groups on a side chain read outwards from the residue. *: point of attachment. Ala(1-Me-3-pyridinium) = C[n+]1cccc(C[C@H](N)C(=O)O)c1; PEG12 = NCCOCCOCCOCCOCCOCCOCCOCCOCCOCCOCCOCCOCCC(=O)O; Trp(7-Me) = Cc1cccc2c(C[C@H](N)C(=O)O)c[nH]c12; PEG9 = NCCOCCOCCOCCOCCOCCOCCOCCOCCOCCC(=O)O; Dab(NMeAc) = CC(=O)N(C)CC[C@H](N)C(=O)O; Ac6c(4,4-F2) = NC1(C(=O)O)CCC(F)(F)CC1; 2Nal = N[C@@H](Cc1ccc2ccccc2c1)C(=O)O; AEF = NCCOc1ccc(C[C@H](N)C(=O)O)cc1; X79 = CN1CCC(N[*:1])(C(=O)[*:2])CC1; PEG6 = NCCOCCOCCOCCOCCOCCOCCC(=O)O; 3Pal = N[C@@H](Cc1cccnc1)C(=O)O; Lys(Me) = CNCCCC[C@H](N)C(=O)O; Pen = CC(C)(S)[C@H](N)C(=O)O; Thp = NC1(C(=O)O)CCOCC1; Me2NCH2CH2 = CN(C)CC*; Tfa = O=C(C(F)(F)F)*; Sar = CNCC(=O)O; CHF2 = FC(F)*; X2 = CNCC*

Assay: Exposed Polar Surface Area (EPSA)
Format: physicochemical
Settings: SFC on Chirex 3014 column; sample 1 mM DMSO stock; read-out: EPSA
Method in brief: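 Polarity descriptor in Å² derived from retention time using 8 calibration standards re-run every 20 compounds. Duplicate injections of 1 mM DMSO stock; linear 5–60% modifier gradient (20 mM ammonium formate in MeOH) with CO2 at 4 mL/min, 35 °C, on a Chirex 3014 column.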

Structure (SMILES)	EPSA [A^2]
CC(=O)NCCCC[C@@H]1NC(=O)[C@H](Cc2c[nH]c3c(C)cccc23)NC(=O)[C@H]([C@@H](C)O)NC(=O)[C@H](CC(N)=O)NC(=O)[C@@H](NC(=O)[C@@H](CCCNC(=N)N)NC(=O)CCOCCOCCOCCOCCOCCOCCNC(C)=O)C(C)(C)SSC(C)(C)[C@@H](C(=O)N[C@@H](Cc2ccc(OCCN)cc2)C(=O)N[C@@H](Cc2ccc3ccccc3c2)C(=O)NC2(C(=O)N[C@@H](CCC(=O)O)C(=O)N[C@@H](CC(N)=O)C(=O)N[C@@H](Cc3cccnc3)C(=O)N(C)CC(N)=O)CCOCC2)NC1=O [compound 37] (Ac-[PEG6][dR][Pen]NT[Trp(7-Me)]K(Ac)[Pen][AEF][2Nal][Thp]EN[3Pal][Sar]-NH2; disulfide 3-8 (inferred))	174
CC(=O)NCCCC[C@@H]1NC(=O)[C@H](Cc2c[nH]c3c(C)cccc23)NC(=O)[C@H]([C@@H](C)O)NC(=O)[C@H](CC(N)=O)NC(=O)[C@@H](NC(=O)[C@@H](CCCNC(=N)N)NC(=O)CCOCCOCCOCCOCCOCCOCCOCCOCCOCCOCCOCCOCCNC(C)=O)C(C)(C)SSC(C)(C)[C@@H](C(=O)N[C@@H](Cc2ccc(OCCN)cc2)C(=O)N[C@@H](Cc2ccc3ccccc3c2)C(=O)NC2(C(=O)N[C@@H](CCC(=O)O)C(=O)N[C@@H](CC(N)=O)C(=O)N[C@@H](Cc3cccnc3)C(=O)N(C)CC(N)=O)CCOCC2)NC1=O [compound 38] (Ac-[PEG12][dR][Pen]NT[Trp(7-Me)]K(Ac)[Pen][AEF][2Nal][Thp]EN[3Pal][Sar]-NH2; disulfide 3-8)	172
CC(=O)NCCCC[C@@H]1NC(=O)[C@H](Cc2c[nH]c3c(C)cccc23)NC(=O)[C@H]([C@@H](C)O)NC(=O)[C@H](CC(N)=O)NC(=O)[C@@H](NC(=O)[C@@H](CCCCNC(=O)CCOCCOCCOCCOCCOCCOCCOCCOCCOCCOCCOCCOCCNC(C)=O)NC(C)=O)C(C)(C)SSC(C)(C)[C@@H](C(=O)N[C@@H](Cc2ccc(OCCN)cc2)C(=O)N[C@@H](Cc2ccc3ccccc3c2)C(=O)NC2(C(=O)N[C@@H](CCCCNC(C)=O)C(=O)N[C@@H](CC(N)=O)C(=O)N[C@@H](Cc3cccnc3)C(=O)N(C)CC(N)=O)CCOCC2)NC1=O [compound 40] (Ac-[dK]([PEG12-Ac])[Pen]NT[Trp(7-Me)]K(Ac)[Pen][AEF][2Nal][Thp]K(Ac)N[3Pal][Sar]-NH2; disulfide 2-7)	156
CC(=O)NCCCC[C@@H]1NC(=O)[C@H](Cc2c[nH]c3c(C)cccc23)NC(=O)[C@H]([C@@H](C)O)NC(=O)[C@H](CC(N)=O)NC(=O)[C@@H](NC(=O)[C@@H](CCCNC(=N)N)NC(=O)CCOCCOCCOCCOCCOCCOCCOCCOCCOCCNC(C)=O)C(C)(C)SSC(C)(C)[C@@H](C(=O)N[C@@H](Cc2ccc(OCCN)cc2)C(=O)N[C@@H](Cc2ccc3ccccc3c2)C(=O)NC2(C(=O)N[C@@H](CCC(=O)O)C(=O)N[C@@H](CC(N)=O)C(=O)N[C@@H](Cc3cccnc3)C(=O)N(C)CC(N)=O)CCOCC2)NC1=O [compound 43] (Ac-[PEG9][dR][Pen]NT[Trp(7-Me)]K(Ac)[Pen][AEF][2Nal][Thp]EN[3Pal][Sar]-NH2; disulfide 3-8)	173
CNCCOc1ccc(C[C@H](NC(=O)[C@H]2NC(=O)[C@H](CCCCNC(C)=O)NC(=O)[C@H](Cc3c[nH]c4c(C)cccc34)NC(=O)[C@H]([C@@H](C)O)NC(=O)[C@H](CC(N)=O)NC(=O)[C@@H](NC(C)=O)C(C)(C)SSC2(C)C)C(=O)N[C@@H](Cc2ccc3ccccc3c2)C(=O)NC2(C(=O)N[C@@H](CCCCNC(C)=O)C(=O)N[C@@H](CC(N)=O)C(=O)N[C@@H](Cc3cccnc3)C(=O)N(C)CC(N)=O)CCOCC2)cc1 [compound 47] (Ac-[Pen]NT[Trp(7-Me)]K(Ac)[Pen]Y(X2)[2Nal][Thp]K(Ac)N[3Pal][Sar]-NH2; disulfide 1-6 (inferred))	154
CNC(=O)C[C@H](NC(=O)[C@H](CCCCNC(C)=O)NC(=O)C1(NC(=O)[C@H](Cc2ccc3ccccc3c2)NC(=O)[C@H](Cc2ccc(OCCN)cc2)NC(=O)[C@H]2NC(=O)[C@H](CCCCNC(C)=O)NC(=O)[C@H](Cc3c[nH]c4c(C)cccc34)NC(=O)[C@H]([C@@H](C)O)NC(=O)[C@H](CC(N)=O)NC(=O)[C@@H](NC(C)=O)C(C)(C)SSC2(C)C)CCOCC1)C(=O)N[C@@H](Cc1cccnc1)C(=O)N(C)CC(N)=O [compound 48] (Ac-[Pen]NT[Trp(7-Me)]K(Ac)[Pen][AEF][2Nal][Thp]K(Ac)D(NHMe)[3Pal][Sar]-NH2; disulfide 1-6)	184
CC(=O)NCCCC[C@@H]1NC(=O)[C@H](Cc2c[nH]c3c(C)cccc23)NC(=O)[C@H]([C@@H](C)O)NC(=O)[C@H](CC(N)=O)NC(=O)[C@@H](NC(=O)C(F)(F)F)C(C)(C)SSC(C)(C)[C@@H](C(=O)N[C@@H](Cc2ccc(OCCN)cc2)C(=O)N[C@@H](Cc2ccc3ccccc3c2)C(=O)NC2(C(=O)N[C@@H](CCCCNC(C)=O)C(=O)N[C@@H](CC(N)=O)C(=O)N[C@@H](Cc3cccnc3)C(=O)N(C)CC(N)=O)CCOCC2)NC1=O [compound 49] (Tfa-[Pen]NT[Trp(7-Me)]K(Ac)[Pen][AEF][2Nal][Thp]K(Ac)N[3Pal][Sar]-NH2; disulfide 1-6)	164
CC(=O)NCCCC[C@@H]1NC(=O)[C@H](Cc2c[nH]c3c(C)cccc23)NC(=O)[C@H]([C@@H](C)O)NC(=O)[C@H](CC(N)=O)NC(=O)[C@@H](NC(=O)C(F)(F)F)C(C)(C)SSC(C)(C)[C@@H](C(=O)N[C@@H](Cc2ccc(OCCN)cc2)C(=O)N[C@@H](Cc2ccc3ccccc3c2)C(=O)NC2(C(=O)N[C@@H](CCCCNC(C)=O)C(=O)N[C@@H](CC(N)=O)C(=O)N[C@@H](Cc3cccnc3)C(=O)N(C)CC(N)=O)CCC(F)(F)CC2)NC1=O [compound 50] (Tfa-[Pen]NT[Trp(7-Me)]K(Ac)[Pen][AEF][2Nal][Ac6c(4,4-F2)]K(Ac)N[3Pal][Sar]-NH2; disulfide 1-6 (inferred))	162
CC(=O)NCCCC[C@H](NC(=O)C1(NC(=O)[C@H](Cc2ccc3ccccc3c2)NC(=O)[C@H](Cc2ccc(OCCN)cc2)NC(=O)[C@H]2NC(=O)[C@H](CCN(C)C(C)=O)NC(=O)[C@H](Cc3c[nH]c4c(C)cccc34)NC(=O)[C@H]([C@@H](C)O)NC(=O)[C@H](CC(N)=O)NC(=O)[C@@H](NC(=O)C(F)(F)F)C(C)(C)SSC2(C)C)CCOCC1)C(=O)N[C@@H](CC(N)=O)C(=O)N[C@@H](Cc1ccc[n+](C)c1)C(=O)N(C)CC(N)=O [compound 51] (Tfa-[Pen]NT[Trp(7-Me)][Dab(NMeAc)][Pen][AEF][2Nal][Thp]K(Ac)N[Ala(1-Me-3-pyridinium)][Sar]-NH2; disulfide 1-6)	156
CC(=O)NCCCC[C@@H]1NC(=O)[C@H](Cc2c[nH]c3c(C)cccc23)NC(=O)[C@H]([C@@H](C)O)NC(=O)[C@H](CC(N)=O)NC(=O)[C@@H](NC(=O)C(F)(F)F)C(C)(C)SSC(C)(C)[C@@H](C(=O)N[C@@H](Cc2ccc(OCCN(C)C)cc2)C(=O)N[C@@H](Cc2ccc3ccccc3c2)C(=O)NC2(C(=O)N[C@@H](CCCCNC(C)=O)C(=O)N[C@@H](CC(N)=O)C(=O)N[C@@H](Cc3cccnc3)C(=O)N(C)CC(N)=O)CCOCC2)NC1=O [compound 53] (Tfa-[Pen]NT[Trp(7-Me)]K(Ac)[Pen]Y(Me2NCH2CH2)[2Nal][Thp]K(Ac)N[3Pal][Sar]-NH2; disulfide 1-6 (inferred))	155
CC(=O)NCCCC[C@@H]1NC(=O)[C@H](Cc2c[nH]c3c(C)cccc23)NC(=O)[C@H]([C@@H](C)O)NC(=O)[C@H](CC(N)=O)NC(=O)[C@@H](NC(=O)C(F)(F)F)C(C)(C)SSC(C)(C)[C@@H](C(=O)N[C@@H](Cc2ccc(OC(F)F)cc2)C(=O)N[C@@H](Cc2ccc3ccccc3c2)C(=O)NC2(C(=O)N[C@@H](CCCCNC(C)=O)C(=O)N[C@@H](CC(N)=O)C(=O)N[C@@H](Cc3cccnc3)C(=O)N(C)CC(N)=O)CCOCC2)NC1=O [compound 54] (Tfa-[Pen]NT[Trp(7-Me)]K(Ac)[Pen]Y(CHF2)[2Nal][Thp]K(Ac)N[3Pal][Sar]-NH2; disulfide 1-6 (inferred))	156
CC(=O)NCCCC[C@@H]1NC(=O)[C@H](Cc2c[nH]c3c(C)cccc23)NC(=O)[C@H]([C@@H](C)O)NC(=O)[C@H](CC(N)=O)NC(=O)[C@@H](NC(=O)C(F)(F)F)C(C)(C)SSC(C)(C)[C@@H](C(=O)N[C@@H](Cc2ccc(OCCN)cc2)C(=O)N[C@@H](Cc2ccc3ccccc3c2)C(=O)NC2(C(=O)N[C@@H](CCCCNC(C)=O)C(=O)N[C@@H](CC(N)=O)C(=O)N[C@@H](Cc3cccnc3)C(=O)N(C)CC(N)=O)CCN(C)CC2)NC1=O [compound 55] (Tfa-[Pen]NT[Trp(7-Me)]K(Ac)[Pen][AEF][2Nal][X79]K(Ac)N[3Pal][Sar]-NH2; disulfide 1-6 (inferred))	159
CC(=O)NCCCC[C@@H]1NC(=O)[C@H](Cc2c[nH]c3c(C)cccc23)NC(=O)[C@H]([C@@H](C)O)NC(=O)[C@H](CC(N)=O)NC(=O)[C@@H](NC(C)=O)C(C)(C)SSC(C)(C)[C@@H](C(=O)N[C@@H](Cc2ccc(OCCN)cc2)C(=O)N[C@@H](Cc2ccc3ccccc3c2)C(=O)NC2(C(=O)N[C@@H](CCCCN(C)C(C)=O)C(=O)N[C@@H](CC(N)=O)C(=O)N[C@@H](Cc3cccnc3)C(=O)N(C)CC(N)=O)CCOCC2)NC1=O [compound 59] (Ac-[Pen]NT[Trp(7-Me)]K(Ac)[Pen][AEF][2Nal][Thp][Lys(Me)](Ac)N[3Pal][Sar]-NH2; disulfide 1-6 (inferred))	166
CC(=O)NCCCC[C@H](NC(=O)C1(NC(=O)[C@H](Cc2ccc3ccccc3c2)NC(=O)[C@H](Cc2ccc(OCCN)cc2)NC(=O)[C@H]2NC(=O)[C@H](CCC(=O)N(C)C)NC(=O)[C@H](Cc3c[nH]c4c(C)cccc34)NC(=O)[C@H]([C@@H](C)O)NC(=O)[C@H](CC(N)=O)NC(=O)[C@@H](NC(=O)C(F)(F)F)C(C)(C)SSC2(C)C)CCOCC1)C(=O)N[C@@H](CC(N)=O)C(=O)N[C@@H](Cc1cccnc1)C(=O)N(C)CC(N)=O [compound 61] (Tfa-[Pen]NT[Trp(7-Me)]E(NMe2)[Pen][AEF][2Nal][Thp]K(Ac)N[3Pal][Sar]-NH2; disulfide 1-6 (inferred))	159
